PMC7613620, “Reaction hijacking of tyrosine tRNA synthetase as a whole-of-life-cycle antimalarial strategy” (Science (New York, N.Y.), 2022)
Like-named read-outs stand apart in the source and are kept apart here.

Legend:
[1] = system: PfYRS knockdown line; assay: Growth inhibition of aptamer-regulatable PfYRS knockdown line (luciferase, 72 h); type: cell-based, Plasmodium falciparum; conditions: for IC50: Plasmodium falciparum
Excerpt: 674 Generation and analysis of PfYRS knock-down transfectants
675 A conditional regulatable line for the cytosolic PfYRS (PF3D7_0807900) was generated by integrating the
676 gene regulatable system, TetR-DOZI-RNA aptamer module at the 3'-end of the target gene, in P. falciparum
677 parasites using CRISPR-Cas9 and homology-driven repair (55, 56). A line harbourbing an aptamer-
678 regulatable fluorescent protein (eYFP) integrated in the cg6 locus is used as the control (55). Transfection
679 into parasites was carried out by preloading RBCs with the donor vector as described previously (57).
680 Briefly, 50 μg of purified plasmid DNA was mixed with human RBCs and subjected to 8 square wave
681 electroporation pulses of 365 V for 1 ms each, separated by 0.1 s in a 0.2 cm cuvette. The plasmid DNA
682 preloaded cells were inoculated with NF54 expressing Cas9 and T7 RNA polymerase. […]
696 Stock solutions of ML901, DHA or borrelidin (Cayman Chemicals) were dispensed into 96-well U-bottom
697 BD Falcon™ plates and serially diluted in complete medium to yield final concentrations ranging from 20-
698 0.08 nM. Synchronous ring-stage YRScyt conditional knockdown line and the aptamer-regulatable control
699 line in varying aTc concentrations (high = 50 or 500 nM, low = 1 nM, and no aTc) were distributed into
700 the drug plate. Lowest drug treatment and a lethal dose of chloroquine (200 nM) served as reference
701 controls. Growth inhibition was analysed after 72 h using the Renilla-Glo(R) Luciferase Assay System (ref
702 no E2750 Promega) and the GloMax® Discover Multimode Microplate Reader (Promega), and IC50 values
703 were obtained from corrected dose-response curves using GraphPad Prism (version 8; GraphPad Software). […]
706 CRISPR/Cas9 was used to generate parasites encoding the S234C mutation in exon 2 of PfYRS, as shown
707 in Suppl Figure 6. Two guide RNAs (gRNA1: […] and gRNA2:
708 […]) were selected using Benchling (benchling.com), and cloned into the
709 pDC2-coCas9-gRNA plasmid essentially as described previously (58). A donor template of 645 bp,
710 encompassing the majority of the 708 bp exon 2, was synthesized (ThermoFisher) and cloned into the
711 AatII/EcoRI sites of both the pDC2-coCas9-gRNA1 and pDC2-coCas9-gRNA2 plasmids. In addition to
712 the TCC>TGC (S234C) mutation, additional silent shield mutations were introduced to prevent gRNA-
713 Cas9 complex binding, as shown in Suppl Figure 6. Ring-stage P. falciparum parasites (Dd2 strain) at 10%
714 parasitemia (150 µL of packed cells) were transfected with 50 µg of plasmid DNA using a BioRad Gene
715 Pulser II (310 V, 950 µF), and selected with 5 nM WR99210 (Jacobus Pharmaceuticals) for 8 days, after
716 which culture was continued without drug pressure until transfectants were obtained. Clones of the
717 PfYRSS234C mutant parasites were isolated by limiting dilution and verified by Sanger sequencing.
719 Protein translation assay
720 P. falciparum Cam 3.II_Rev (25) schizont- (43-48 h p.i.) infected RBCs were pre-incubated with inhibitor
Using a modification of a published procedure (14), the
722 cells were labelled with O-propargyl-puromycin (OPP; 4 µM) for 1 h, washed 3x (PBS +3% serum) and
(§1) 723 then fixed for 10 minutes (4% formaldehyde/0.02% glutaraldehyde in PBS). The click reaction was
(§2) 724 performed for 1 h in the presence of CuSO4 (0.1 mM), THPTA (0.5 mM) and sodium ascorbate (5 mM) to
(§3) 725 bring about azide-alkyne cycloaddition to Alexa Fluor 488 azide (0.1 µM). Flow cytometry was performed
(§4) 726 using the FITC and Cy™5.5 channels to detect the Alexa Fluor 488 and PI, respectively.
(§5) 729 Cam 3.II_Rev (25) trophozoite-infected RBCs (25-30 h p.i.) were incubated with inhibitor for 3 h at 10%
(§6) 730 hematocrit and 5% parasitemia. The RBC pellet was washed 3 x in PBS + cOmplete. Cells were centrifuged
(§7) 731 at 380 x g for 5 min and the pelleted cells lysed by resuspension in PBS + 0.05% saponin for 5 min on ice.

[2] = system: protein translation in P. falciparum (Cam3.II-rev) schizonts; assay: Protein translation assay (O-propargyl-puromycin incorporation); type: cell-based, Plasmodium falciparum; conditions: Plasmodium falciparum, 3 h, read-out: IC50 (Translation), schizont stage Cam3.II-rev, 3 h exposure, OPP incorporation
Description: as §1, §2, §3, §4, §5, §6, §7

[3] = system: H1650; assay: H1650 cell viability (ATP content); type: cell-based; conditions: Homo sapiens, NCI-H1650, read-out: H1650 IC50(72h); 72 h; ATG7-null cell line
Description: 574 H1650 is a human lung cancer derived ATG7-null cell line (49) that can be used to assess effects on targets
576 adenocarcinoma; bronchoalveolar carcinoma). Other cells lines used are: H460 (NCI-H460; human lung;
577 carcinoma; large cell lung cancer; ATCC: HTB-177); and HCT116 (human colon; colorectal carcinoma;
578 ATCC: CCL-247; Lot : 5056139). Each of the cell lines was received from the American Type Culture
579 Collection (ATCC) and passaged twice before freezing. Cells were cultured in the presence or absence of
580 inhibitors and cell viability was assessed by comparing the ATP content in compound-treated wells with
581 that in DMSO-treated wells as previously described (11). […]
585 37°C humidified incubator as adherent semi-confluent monolayers in complete Dulbecco’s Modified Eagle
586 Media (c-DMEM). DMEM (Gibco™, Thermo Fisher Scientific, Australia) was supplemented with 10%

Structure (SMILES): Nc1ncnc2c1c(OC(F)F)nn2[C@@H]1O[C@H](COS(N)(=O)=O)[C@@H](O)[C@H]1O [ML901]
- IC50 ([1]; as stated in main text, aTc condition not given, read-out: IC50 against the knockdown parasites): 0.4 nM
- IC50 ([1]; high aTc (50 nM), read-out: IC50 against PfYRS knockdown line): 3.9 ± 0.9 nM
- IC50 ([1]; low aTc (1 nm), read-out: IC50 against PfYRS knockdown line): 0.5 ± 0.1 nM
- IC50 ([1]; no aTc, read-out: IC50 against PfYRS knockdown line): 0.3 ± 0.1 nM
- Fold change in IC50 (high aTc/ no aTc), PfYRS knockdown line ([1]; high aTc 50 nM): 13
- IC50 [2]: 65 nM
- IC50 [3]: 10700 nM
